Our source for the EC50 and Emax values is US8846951B2 (AbbVie Inc., priority 2009, dated 2014).

One assay concerns the target T1, 5HT2B receptors (Homo sapiens, UniProt P41595).
T1 construct: expressed in transfected cells; host or cells: CHO-K1 cells
The experiment in a line: Human 5-HT2B functional high throughput screening assay in CHO-K1 cells (calcium flux). The assay is classed as cell-based. The conditions noted are these: for EC50: CHO-K1 cells, calcium flux. In a few lines:
(§1)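 Calcium flux in CHO-K1 cells overexpressing each receptor, using Ca4 dye with probenecid and FLIPR detection. Top concentration was 10 μM, diluted 1:10 across 6 points, and efficacy was scaled to serotonin.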

Another assay addresses T2, 5HT2C receptors (Homo sapiens, UniProt P28335).
T2 sequence (P28335 33-458): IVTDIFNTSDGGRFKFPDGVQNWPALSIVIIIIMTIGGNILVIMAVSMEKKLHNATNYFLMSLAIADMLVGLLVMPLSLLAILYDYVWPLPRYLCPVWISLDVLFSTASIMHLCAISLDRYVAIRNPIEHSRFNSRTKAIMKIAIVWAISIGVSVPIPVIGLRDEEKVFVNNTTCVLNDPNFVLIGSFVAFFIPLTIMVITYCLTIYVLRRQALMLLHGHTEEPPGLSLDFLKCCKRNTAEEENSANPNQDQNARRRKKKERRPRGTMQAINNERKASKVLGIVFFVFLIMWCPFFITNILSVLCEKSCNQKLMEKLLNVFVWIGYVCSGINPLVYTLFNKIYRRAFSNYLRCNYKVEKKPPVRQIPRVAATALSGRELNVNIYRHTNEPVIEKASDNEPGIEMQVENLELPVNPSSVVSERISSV
The experiment in a line: Human 5-HT2C functional high throughput screening assay in CHO-K1 cells (calcium flux). The assay is classed as cell-based. Set-up: expressed in transfected cells; host or cells: CHO-K1 cells. The settings on record: for EC50: CHO-K1 cells, calcium flux; for Emax: CHO-K1, 5-HT2C, maximum functional response as percentage relative to the effect of serotonin. A digest of the protocol:
as §1

The mark [1] stands for this setting: 5-HT2B agonist activity, read-out: EC50.
Where [2] appears, read: 5-HT2B, maximum functional response as percentage relative to the effect of serotonin.
The mark [3] stands for this setting: 5-HT2C agonist activity, read-out: EC50.
Where [4] appears, read: CHO-K1, 5-HT2B, maximum functional response as percentage relative to the effect of serotonin, read-out: Emax.

Molecules are shown by their SMILES. Read-outs that look alike come from different tables or passages of the source. Bounds are passed on as bounds.

T1 sequence (P41595 whole entry): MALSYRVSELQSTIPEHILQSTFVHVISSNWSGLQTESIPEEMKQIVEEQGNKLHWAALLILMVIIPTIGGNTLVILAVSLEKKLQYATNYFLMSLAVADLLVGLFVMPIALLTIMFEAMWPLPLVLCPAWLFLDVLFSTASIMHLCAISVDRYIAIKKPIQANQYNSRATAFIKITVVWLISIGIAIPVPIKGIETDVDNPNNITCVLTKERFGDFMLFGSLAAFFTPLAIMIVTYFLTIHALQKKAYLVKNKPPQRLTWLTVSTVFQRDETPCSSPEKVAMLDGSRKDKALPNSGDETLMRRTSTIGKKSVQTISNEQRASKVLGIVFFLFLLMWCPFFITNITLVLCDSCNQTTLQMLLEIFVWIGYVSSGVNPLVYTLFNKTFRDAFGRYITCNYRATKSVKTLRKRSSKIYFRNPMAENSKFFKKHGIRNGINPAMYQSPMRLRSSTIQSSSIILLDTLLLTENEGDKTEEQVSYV

Turning to `Cc1cc(-c2ccc3c(c2)C(=O)NC[C@@H]2CN(C)C[C@@H]32)ccc1F` (relative stereo) [Example 314, Trans-8-(4-fluoro-3-methylphenyl)-2-methyl-2,3,3a,4,5,10b-hexahydropyrrolo[3,4-d][2]benzazepin-6(1H)-one], the EC50 at 5HT2B receptors (setting [1]) was more than 10000 nM; at 5HT2C receptors (setting [3]) it was 3 nM. The Emax entry was “inactive” on 5HT2B receptors (setting [2]) and 95% at 5HT2C receptors (read-out: Emax).

On to `COc1ccc(-c2ccc3c(c2)C(=O)NC[C@@H]2CN(C)C[C@@H]32)cc1C` (relative stereo) [Example 315, Trans-8-(4-methoxy-3-methylphenyl)-2-methyl-2,3,3a,4,5,10b-hexahydropyrrolo[3,4-d][2]benzazepin-6(1H)-one], for which the figures for the EC50 at 5HT2B receptors (setting [1]) and on 5HT2C receptors (setting [3]) were more than 10000 nM and 30 nM, respectively. The values for the Emax result at 5HT2B receptors (setting [2]) and at 5HT2C receptors (read-out: Emax) were “inactive” and 90%, respectively.

Take `COc1ccc(-c2ccc3c(c2)C(=O)NC[C@@H]2CN(C)C[C@@H]32)cc1F` (relative stereo) [Example 316, Trans-8-(3-fluoro-4-methoxyphenyl)-2-methyl-2,3,3a,4,5,10b-hexahydropyrrolo[3,4-d][2]benzazepin-6(1H)-one]: the concentration for a half-maximal effect (EC50) at 5HT2B receptors (setting [1]) was more than 10000 nM; on 5HT2C receptors (setting [3]) it was 7 nM. Moreover, the Emax result on 5HT2B receptors (setting [2]) is “inactive”; on 5HT2C receptors (read-out: Emax), 80%.

In the case of `COc1c(C)cc(-c2ccc3c(c2)C(=O)NC[C@@H]2CN(C)C[C@@H]32)cc1C` (relative stereo) [Example 317, Trans-8-(4-methoxy-3,5-dimethylphenyl)-2-methyl-2,3,3a,4,5,10b-hexahydropyrrolo[3,4-d][2]benzazepin-6(1H)-one], the EC50 on 5HT2B receptors (setting [1]) was more than 10000 nM; at 5HT2C receptors (setting [3]), 70 nM. The Emax entry on 5HT2B receptors (setting [2]) was “inactive”; on 5HT2C receptors (read-out: Emax), 75%.

With `COc1cc(-c2ccc3c(c2)C(=O)NC[C@@H]2CN(C)C[C@@H]32)ccc1F` (relative stereo) [Example 320, Trans-8-(4-fluoro-3-methoxyphenyl)-2-methyl-2,3,3a,4,5,10b-hexahydropyrrolo[3,4-d][2]benzazepin-6(1H)-one], the EC50 on 5HT2B receptors (setting [1]) is more than 10000 nM; at 5HT2C receptors (setting [3]), 7 nM. Further, the Emax entry was “inactive” at 5HT2B receptors (setting [2]) and 90% at 5HT2C receptors (read-out: Emax).

`CN1C[C@H]2CNC(=O)c3cc(-c4ccc5c(c4)CCO5)ccc3[C@@H]2C1` (relative stereo) [Example 321, Trans-8-(2,3-dihydro-1-benzofuran-5-yl)-2-methyl-2,3,3a,4,5,10b-hexahydropyrrolo[3,4-d][2]benzazepin-6(1H)-one]: the EC50 at 5HT2B receptors (setting [1]) was more than 10000 nM; on 5HT2C receptors (setting [3]) it was 3 nM. Besides, the figures for the Emax result on 5HT2B receptors (setting [2]) and at 5HT2C receptors (read-out: Emax) were “inactive” and 90%, respectively.

With `CN1C[C@H]2CNC(=O)c3cc(-c4cc(F)c(F)c(F)c4)ccc3[C@@H]2C1` (relative stereo) [Example 322, Trans-2-methyl-8-(3,4,5-trifluorophenyl)-2,3,3a,4,5,10b-hexahydropyrrolo[3,4-d][2]benzazepin-6(1H)-one], the EC50 is more than 10000 nM on 5HT2B receptors (setting [1]) and 20 nM at 5HT2C receptors (setting [3]). Besides, the Emax entry was “inactive” at 5HT2B receptors (setting [2]) and 80% at 5HT2C receptors (read-out: Emax).

Regarding `COc1ccc(F)c(-c2ccc3c(c2)C(=O)NC[C@@H]2CN(C)C[C@@H]32)c1` (relative stereo) [Example 323, Trans-8-(2-fluoro-5-methoxyphenyl)-2-methyl-2,3,3a,4,5,10b-hexahydropyrrolo[3,4-d][2]benzazepin-6(1H)-one], the EC50 at 5HT2B receptors (setting [1]) is more than 10000 nM; on 5HT2C receptors (setting [3]), 9 nM. Moreover, the Emax result at 5HT2B receptors (setting [2]) is “inactive”; at 5HT2C receptors (read-out: Emax), 90%.

Turning to `CN1C[C@H]2CNC(=O)c3cc(-c4ccc5c(c4)OCC5)ccc3[C@@H]2C1` (relative stereo) [Example 324, Trans-8-(2,3-dihydro-1-benzofuran-6-yl)-2-methyl-2,3,3a,4,5,10b-hexahydropyrrolo[3,4-d][2]benzazepin-6(1H)-one], the EC50 was more than 10000 nM on 5HT2B receptors (setting [1]) and 3 nM on 5HT2C receptors (setting [3]). Further, the Emax result on 5HT2B receptors (setting [2]) was “inactive”; on 5HT2C receptors (read-out: Emax), 85%.

Regarding `CN1CC[C@@H]2CNC[C@H]2c2ccccc21` (relative stereo) [Example 327, Trans-6-methyl-1,2,3,3a,4,5,6,10b-octahydropyrrolo[3,4-d][1]benzazepine], the Emax turned out to be 75% at 5HT2B receptors (CHO-K1) and 95% at 5HT2C receptors. Besides, the EC50 was 200 nM at 5HT2B receptors (EC50, 5-HT2B agonist activity) and 10 nM on 5HT2C receptors (EC50, 5-HT2C agonist activity).

Regarding `CC(=O)N1CC[C@@H]2CNC[C@H]2c2ccccc21` (relative stereo) [Example 328, 1-[Trans-2,3,3a,4,5,10b-hexahydropyrrolo[3,4-d][1]benzazepin-6(1H)-yl]ethanone], the EC50 amounted to 4000 nM on 5HT2B receptors (setting [1]) and 900 nM on 5HT2C receptors (setting [3]). Moreover, the Emax at 5HT2B receptors (CHO-K1) was 60%; on 5HT2C receptors it was 90%.

For the molecule `c1ccc(CN2CC[C@@H]3CNC[C@H]3c3ccccc32)cc1` (relative stereo) [Example 329, Trans-6-benzyl-1,2,3,3a,4,5,6,10b-octahydropyrrolo[3,4-d][1]benzazepine], the EC50 is 2000 nM on 5HT2B receptors (setting [1]) and 1000 nM on 5HT2C receptors (setting [3]). Further, the Emax on 5HT2B receptors (CHO-K1) is 15%; on 5HT2C receptors, 70%.

Turning to `CN1C[C@H]2CCN(C)c3ccccc3[C@@H]2C1` (relative stereo) [Example 330, Trans-2,6-dimethyl-1,2,3,3a,4,5,6,10b-octahydropyrrolo[3,4-d][1]benzazepine], the Emax at 5HT2B receptors (CHO-K1) came out at 30%; on 5HT2C receptors, 90%. The EC50 at 5HT2B receptors (EC50, 5-HT2B agonist activity) is 300 nM; on 5HT2C receptors (EC50, 5-HT2C agonist activity) it was 70 nM.

As to `CN1C[C@H]2CNC(=O)c3cc(-c4ccc(F)cc4F)ccc3[C@@H]2C1` (relative stereo) [Example 331, Trans-8-(2,4-difluorophenyl)-2-methyl-2,3,3a,4,5,10b-hexahydropyrrolo[3,4-d][2]benzazepin-6(1H)-one], the values for the EC50 at 5HT2B receptors (setting [1]) and on 5HT2C receptors (setting [3]) were more than 10000 nM and 200 nM, respectively. For the same molecule, the Emax entry is “inactive” at 5HT2B receptors (setting [2]) and 95% on 5HT2C receptors (read-out: Emax).

Turning to `Brc1cccc2c1OCC[C@H]1CNC[C@@H]21` (relative stereo) [Example 332, Cis-7-bromo-2,3,3a,4,5,10b-hexahydro-1H-[1]benzoxepino[4,5-c]pyrrole], the Emax on 5HT2B receptors (CHO-K1) was determined as 20%; at 5HT2C receptors, 90%. For the same molecule, the EC50 on 5HT2B receptors (EC50, 5-HT2B agonist activity) came to 30 nM; on 5HT2C receptors (EC50, 5-HT2C agonist activity), 0.9 nM.

Regarding `CC(C)C(=O)N1CC[C@@H]2CNC[C@H]2c2ccccc21` (relative stereo) [Example 333, 1-[Trans-2,3,3a,4,5,10b-hexahydropyrrolo[3,4-d][1]benzazepin-6(1H)-yl]-2-methylpropan-1-one], the EC50 at 5HT2B receptors (setting [1]) was found to be 2000 nM; on 5HT2C receptors (setting [3]) it was 300 nM. Moreover, the Emax was 40% on 5HT2B receptors (CHO-K1) and 90% at 5HT2C receptors.

In the case of `O=S(=O)(c1ccc(Cl)c(Cl)c1)N1Cc2cccnc2[C@@H]2CNC[C@H]2C1` (relative stereo) [Example 334, Trans-6-[(3,4-dichlorophenyl)sulfonyl]-5,6,7,7a,8,9,10,10a-octahydropyrido[3,2-c]pyrrolo[3,4-e]azepine], the EC50 is more than 10000 nM at 5HT2B receptors (setting [1]) and 70 nM on 5HT2C receptors (setting [3]). In addition, the Emax result on 5HT2B receptors (setting [2]) is “inactive”; at 5HT2C receptors (read-out: Emax) it was 90%.

In the case of `O=S(=O)(c1ccc(OC(F)F)cc1)N1Cc2cccnc2[C@@H]2CNC[C@H]2C1` (relative stereo) [Example 335, Trans-6-{[4-(difluoromethoxy)phenyl]sulfonyl}-5,6,7,7a,8,9,10,10a-octahydropyrido[3,2-e]pyrrolo[3,4-e]azepine], the EC50 worked out at 900 nM at 5HT2B receptors (setting [1]) and 20 nM on 5HT2C receptors (setting [3]). The Emax on 5HT2B receptors (setting [4]) came to 25%; on 5HT2C receptors (read-out: Emax), 85%.

As for `COc1cccc(S(=O)(=O)N2Cc3cccnc3[C@@H]3CNC[C@H]3C2)c1` (relative stereo) [Example 336, Trans-6-[(3-methoxyphenyl)sulfonyl]-5,6,7,7a,8,9,10,10a-octahydropyrido[3,2-e]pyrrolo[3,4-e]azepine], the EC50 at 5HT2B receptors (setting [1]) is 600 nM; at 5HT2C receptors (setting [3]), 90 nM. In addition, the values for the Emax at 5HT2B receptors (setting [4]) and at 5HT2C receptors (read-out: Emax) were 70% and 90%, respectively.

For the molecule `O=S(=O)(c1cccc(F)c1)N1Cc2cccnc2[C@@H]2CNC[C@H]2C1` (relative stereo) [Example 337, Trans-6-[(3-fluorophenyl)sulfonyl]-5,6,7,7a,8,9,10,10a-octahydropyrido[3,2-c]pyrrolo[3,4-e]azepine], the Emax amounted to 30% on 5HT2B receptors (CHO-K1) and 90% at 5HT2C receptors. Moreover, the EC50 on 5HT2B receptors (EC50, 5-HT2B agonist activity) was 1000 nM; on 5HT2C receptors (EC50, 5-HT2C agonist activity) it was 90 nM.
